#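 Compound exposure: 48 hours, 5 concentrations, 96-well plates. At the TGI there is no net growth.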
# What was measured:
# Assay in all cases: NCI anticancer screen, dose series, 48 h
# OVCAR-5 ovarian = system: OVCAR-5 ovarian
# T-47D breast = system: T-47D breast
# OVCAR-4 ovarian = system: OVCAR-4 ovarian
# SF-295 CNS = system: SF-295 CNS
# MDA-N = system: MDA-N
# A549 NSCLC = system: A549 NSCLC
# SF-539 CNS = system: SF-539 CNS
# UACC-257 melanoma = system: UACC-257 melanoma
# NCI-H522 lung = system: NCI-H522 lung
# BT-549 breast = system: BT-549 breast
# SK-MEL-28 melanoma = system: SK-MEL-28 melanoma
# UACC-62 melanoma = system: UACC-62 melanoma
# SR leukemia = system: SR leukemia
# NCI-H226 lung = system: NCI-H226 lung
# CAKI-1 renal = system: CAKI-1 renal
# IGROV1 ovarian = system: IGROV1 ovarian
# NCI/ADR-RES ovarian = system: NCI/ADR-RES ovarian
# SW-620 colon = system: SW-620 colon
# EKVX NSCLC = system: EKVX NSCLC
# MDA-MB-435 = system: MDA-MB-435
# LOX IMVI melanoma = system: LOX IMVI melanoma
# 786-0 renal = system: 786-0 renal
# HOP-92 NSCLC = system: HOP-92 NSCLC
# OVCAR-8 ovarian = system: OVCAR-8 ovarian
# MDA-MB-231 breast = system: MDA-MB-231 breast
# SK-MEL-2 melanoma = system: SK-MEL-2 melanoma
# SNB-19 CNS = system: SNB-19 CNS
# HCT-15 colon = system: HCT-15 colon
# A498 renal = system: A498 renal
# NCI-H23 lung = system: NCI-H23 lung
# DU-145 prostate = system: DU-145 prostate
# K-562 leukemia = system: K-562 leukemia
# OVCAR-3 ovarian = system: OVCAR-3 ovarian
# MCF7 breast = system: MCF7 breast
# MALME-3M melanoma = system: MALME-3M melanoma
# MOLT-4 leukemia = system: MOLT-4 leukemia
# HOP-62 NSCLC = system: HOP-62 NSCLC
# HCC-2998 colon = system: HCC-2998 colon
# SK-MEL-5 melanoma = system: SK-MEL-5 melanoma
# M14 melanoma = system: M14 melanoma
# RXF 393 renal = system: RXF 393 renal
# UO-31 renal = system: UO-31 renal
# HCT-116 colon = system: HCT-116 colon
# RPMI-8226 leukemia = system: RPMI-8226 leukemia
# SN12C renal = system: SN12C renal
# TK-10 renal = system: TK-10 renal
# ACHN renal = system: ACHN renal
# CCRF-CEM leukemia = system: CCRF-CEM leukemia
# KM12 colon = system: KM12 colon
# PC-3 prostate = system: PC-3 prostate
# SK-OV-3 ovarian = system: SK-OV-3 ovarian
# COLO 205 colon = system: COLO 205 colon
# U251 CNS = system: U251 CNS
# HL-60(TB) leukemia = system: HL-60(TB) leukemia
# HS 578T breast = system: HS 578T breast
# SNB-75 CNS = system: SNB-75 CNS
# NCI-H460 lung = system: NCI-H460 lung
# SF-268 CNS = system: SF-268 CNS
# HT29 colon = system: HT29 colon
smiles,measurement,setting,value
O=C(NCC(O)COc1ccccc1)c1ccccc1O (stereo unspecified),TGI,OVCAR-5 ovarian,> 100 µM
same,TGI,T-47D breast,> 100 µM
same,TGI,OVCAR-4 ovarian,> 100 µM
same,TGI,SF-295 CNS,> 100 µM
same,TGI,MDA-N,> 100 µM
same,TGI,A549 NSCLC,> 100 µM
same,TGI,SF-539 CNS,> 100 µM
same,TGI,UACC-257 melanoma,> 100 µM
same,TGI,NCI-H522 lung,> 100 µM
same,TGI,BT-549 breast,> 100 µM
same,TGI,SK-MEL-28 melanoma,> 100 µM
same,TGI,UACC-62 melanoma,> 100 µM
same,TGI,SR leukemia,> 100 µM
same,TGI,NCI-H226 lung,> 100 µM
same,TGI,CAKI-1 renal,> 100 µM
same,TGI,IGROV1 ovarian,> 100 µM
same,TGI,NCI/ADR-RES ovarian,> 100 µM
same,TGI,SW-620 colon,> 100 µM
same,TGI,EKVX NSCLC,> 100 µM
same,TGI,MDA-MB-435,> 100 µM
same,TGI,LOX IMVI melanoma,> 100 µM
same,TGI,786-0 renal,> 100 µM
same,TGI,HOP-92 NSCLC,> 100 µM
same,TGI,OVCAR-8 ovarian,> 100 µM
same,TGI,MDA-MB-231 breast,> 100 µM
same,TGI,SK-MEL-2 melanoma,> 100 µM
same,TGI,SNB-19 CNS,> 100 µM
same,TGI,HCT-15 colon,> 100 µM
same,TGI,A498 renal,> 100 µM
same,TGI,NCI-H23 lung,> 100 µM
same,TGI,DU-145 prostate,> 100 µM
same,TGI,K-562 leukemia,> 100 µM
same,TGI,OVCAR-3 ovarian,> 100 µM
same,TGI,MCF7 breast,> 100 µM
same,TGI,MALME-3M melanoma,> 100 µM
same,TGI,MOLT-4 leukemia,47.2 µM
same,TGI,HOP-62 NSCLC,> 100 µM
same,TGI,HCC-2998 colon,> 100 µM
same,TGI,SK-MEL-5 melanoma,> 100 µM
same,TGI,M14 melanoma,> 100 µM
same,TGI,RXF 393 renal,> 100 µM
same,TGI,UO-31 renal,> 100 µM
same,TGI,HCT-116 colon,> 100 µM
same,TGI,RPMI-8226 leukemia,> 100 µM
same,TGI,SN12C renal,> 100 µM
same,TGI,TK-10 renal,> 100 µM
same,TGI,ACHN renal,> 100 µM
same,TGI,CCRF-CEM leukemia,> 100 µM
same,TGI,KM12 colon,> 100 µM
same,TGI,PC-3 prostate,> 100 µM
same,TGI,SK-OV-3 ovarian,> 100 µM
same,TGI,COLO 205 colon,> 100 µM
same,TGI,U251 CNS,> 100 µM
Cc1ccc2c(c1)CC1(Cc3cc(C)ccc3C1=O)C2=O,TGI,OVCAR-5 ovarian,> 100 µM
same,TGI,T-47D breast,> 100 µM
same,TGI,OVCAR-4 ovarian,> 100 µM
same,TGI,SF-295 CNS,> 100 µM
same,TGI,MDA-N,> 100 µM
same,TGI,A549 NSCLC,> 100 µM
same,TGI,SF-539 CNS,> 100 µM
same,TGI,UACC-257 melanoma,> 100 µM
same,TGI,NCI-H522 lung,> 100 µM
same,TGI,SK-MEL-28 melanoma,> 100 µM
same,TGI,SR leukemia,> 100 µM
same,TGI,CAKI-1 renal,> 100 µM
same,TGI,HL-60(TB) leukemia,> 100 µM
same,TGI,HS 578T breast,> 100 µM
same,TGI,IGROV1 ovarian,> 100 µM
same,TGI,NCI/ADR-RES ovarian,> 100 µM
same,TGI,SW-620 colon,> 100 µM
same,TGI,EKVX NSCLC,> 100 µM
same,TGI,MDA-MB-435,> 100 µM
same,TGI,LOX IMVI melanoma,> 100 µM
same,TGI,786-0 renal,> 100 µM
same,TGI,HOP-92 NSCLC,> 100 µM
same,TGI,OVCAR-8 ovarian,> 100 µM
same,TGI,MDA-MB-231 breast,> 100 µM
same,TGI,SK-MEL-2 melanoma,> 100 µM
same,TGI,SNB-19 CNS,> 100 µM
same,TGI,HCT-15 colon,> 100 µM
same,TGI,SNB-75 CNS,> 100 µM
same,TGI,A498 renal,> 100 µM
same,TGI,NCI-H23 lung,> 100 µM
same,TGI,DU-145 prostate,> 100 µM
same,TGI,K-562 leukemia,> 100 µM
same,TGI,OVCAR-3 ovarian,> 100 µM
same,TGI,MCF7 breast,> 100 µM
same,TGI,MALME-3M melanoma,> 100 µM
same,TGI,MOLT-4 leukemia,> 100 µM
same,TGI,NCI-H460 lung,> 100 µM
same,TGI,HOP-62 NSCLC,> 100 µM
same,TGI,HCC-2998 colon,> 100 µM
same,TGI,SK-MEL-5 melanoma,> 100 µM
same,TGI,M14 melanoma,> 100 µM
same,TGI,RXF 393 renal,> 100 µM
same,TGI,UO-31 renal,> 100 µM
same,TGI,HCT-116 colon,> 100 µM
same,TGI,RPMI-8226 leukemia,> 100 µM
same,TGI,TK-10 renal,> 100 µM
same,TGI,SF-268 CNS,> 100 µM
same,TGI,ACHN renal,> 100 µM
same,TGI,CCRF-CEM leukemia,> 100 µM
same,TGI,PC-3 prostate,> 100 µM
same,TGI,SK-OV-3 ovarian,> 100 µM
same,TGI,HT29 colon,> 100 µM
same,TGI,U251 CNS,> 100 µM
